Reference: patent US10836757B1, “Polymorphic forms of metopimazine” (Neurogastrx, Inc., priority 2020, dated 2020)
Entries after “also recorded” stand apart in the source; their conditions may differ. Structures can show the parent of a compound that is named as a salt. Where two headings read alike, the source gives them in different places.

How the values were obtained:
[1] = Clinical comparative pharmacokinetic study, 3-period cross-over, single oral doses, plasma samples; assay type: in vivo, human; settings: for AUC(0-inf) / Cmax / Tmax: human, po, 15 mg; for AUC(0-inf): read-out: AUC0-inf Geometric Least Square Mean (GLSM); for Cmax: read-out: Cmax Geometric Least Square Mean (GLSM)
Method: A clinical comparative pharmacokinetic study was performed to understand the pharmacokinetic profile of metopimazine mesylate Crystal Form A in comparison to the free base of metopimazine. This study was as a 3-period, cross-over design with 3 administrations of single doses: oral formulation of metopimazine mesylate Crystal Form A fasting, oral formulation of metopimazine mesylate Crystal Form A after a high-fat breakfast, and oral formulation of metopimazine free base fasting, with a wash-out period of 48 hours between each administration. Fifteen subjects were enrolled and received each of the 3 treatment. Plasma samples from each subject were analyzed for various pharmacokinetic parameters. Mixed model repeated measures (MMRM) analysis was performed on each sample.
The second objective of this study was to compare the pharmacokinetics of metopimazine mesylate Crystal Form A administered as an oral administration of a single dose of 15 mg orally in 15 human subjects either in a fasted state or after a high fat breakfast. Plasma samples from each subject were analyzed for various pharmacokinetic parameters. […] Both Cmax and AUC are well within the 90% confidence interval.

[2] = administration before and after a high fat breakfast; cited from earlier work
[3] = single oral dose 15 mg, n = 15, fasted, plasma
[4] = 15 mg oral, n = 15, 90% confidence interval
[5] = 15 mg oral, n = 15, 90% confidence interval, *Bioequivalence
[6] = plasma, 15 mg oral, n = 15, fasted
[7] = plasma, 15 mg oral, n = 15, fed high fat breakfast (1030 kcal, 16% protein, 61% fat, 23% carbohydrate)

Tmax, Median [1, 3] | Tmax, Min [1, 3] | Reduction in Cmax when administered with food ([1]; 15 mg oral, high fat breakfast vs fasted) | Geometric mean difference in Cmax, high fat breakfast vs fasted ([1]; 15 mg oral, n = 15) | Cmax ratio fasted vs fed, Lower CI % [1, 4] | Cmax ratio fasted vs fed, Upper CI % [1, 4] | AUC0-inf ratio fasted vs fed, Lower CI % [1, 5] | AUC0-inf ratio fasted vs fed, Upper CI % [1, 5] | AUC(0-inf) [1, 6] | Cmax [1, 6] | AUC(0-inf) [1, 7] | Cmax [1, 7] | Tmax ([1]; plasma, single oral dose 15 mg, n = 15, fasted, plasma, read-out: Tmax, Mean) | Tmax ([1]; plasma, single oral dose 15 mg, n = 15, fasted, plasma, read-out: Tmax, Median) | Structure (SMILES) | Reduction in AUC (food effect) [2] | Reduction in Cmax (food effect) [2] | Change in AUC, high fat breakfast vs fasted ([1]; 15 mg oral, n = 15)
60 min | 30 min |  |  |  |  |  |  |  |  |  |  |  |  | CS(=O)(=O)c1ccc2c(c1)N(CCCN1CCC(C(N)=O)CC1)c1ccccc1S2 [Metopimazine free base, 1-(3-(2-(methylsulfonyl)-10H-phenothiazin-10-yl)propyl)piperidine-4-carboxamide, reference compound] | 23% | 58% | 
 |  | approximately 15% | slightly but significantly lower | 63.82% | 110.75% | 86.00* % | 101.93* % | 64 ng·h/mL | 18.2 ng/mL | 59.9 ng·h/mL | 15.3 ng/mL | 52.2 min | 45 min | CS(=O)(=O)c1ccc2c(c1)N(CCCN1CCC(C(N)=O)CC1)c1ccccc1S2 [Metopimazine mesylate Crystal Form A, 1-(3-(2-(methylsulfonyl)-10H-phenothiazin-10-yl)propyl)piperidine-4-carboxamide methanesulfonic acid] |  |  | not statistical difference; also recorded: no notable change
